Data as given in patent US20040043483A1, “Novel tolerogenic dendritic cells and therapeutic uses therefor” (priority 2002, published 2004).

System: C3H spleen T cells
Experiment: One-way mixed leukocyte reaction (MLR), allostimulatory capacity by [3H]TdR uptake
Type: cell-based, mouse
Conditions: zVAD-fmk 100 μM added at the beginning of 3-day MLR
Description: Mixed leukocyte reaction (MLR). To determine the allostimulatory capacity of DCs, one-way MLR were performed with γ-irradiated (20 Gy) DCs or spleen cells from B10 (allogeneic) or C3H (syngeneic) mice as stimulators and nylon wool-purified C3H spleen T cells (2×105) as responders. Cultures (200 μl) were established in triplicate in 96-well round-bottom microculture plates and maintained in complete medium in 5% CO2 in air at 37° C. for 3-4 days. [^3H]TdR (1 μCi/well) was added for the final 18 h of culture, and incorporation of [^3H]TdR into DNA was assessed by liquid scintillation counting in an automated counter. Results are expressed as mean cpm±1 SD. In apoptosis inhibition experiments, a common caspase inhibitor peptide, benzyloxycarbonyl-Val Ala-Asp-fluoromethyl ketone (zVAD-fmk; Alexis, San Diego, Calif.), was added (100 μM) at the beginning of the MLR culture. DMSO served as a control.
Allostimulatory capacity of liver-derived DEC205^+B220^+CD19^−cells. The allostimulatory capacity of DEC205^+, B220^+, CD19^−cells derived from B 10 liver NPCs was determined in a one-way MLR, performed as described above. […] Despite the high expression of MHC and costimulatory molecules, liver-derived DEC205^+B220^+CD19^−cells display low allostimulatory capacity.

benzyloxycarbonyl-Val Ala-Asp-fluoromethyl ketone [zVAD-fmk]
T cell proliferation induced by liver-derived DEC205+B220+CD19− cells after caspase inhibition: restored T cell proliferation
